The subject of data set [1] is mice sensitized with oxazolone. In kind it is in vivo, mouse. The settings on record: ear measured 24 hours after oxazolone challenge, BALB/c mice. The method, then: Groups of 5 female inbred BALB/c mice (The Jackson Laboratory, Bar Harbor, Me.) were sensitized on the shaved abdominal skin with 2% oxazolone (100 μl) dissolved in acetone/olive oil [4:1 (vol/vol)] applied topically. Delayed type hypersensitivity (DTH) was elicited 5 days later by challenging the mice with 0.5% oxazolone in acetone/olive oil (10 μl given topically to each side of the ear). A constant area of the ear was measured immediately before and 24 hours after the challenge using a Mitutoyo engineer's micrometer. The percent inhibition of DTH is calculated as follows:
% Inhibition=[1-{(treated−negative control)/(positive control−negative control)}]×100.
The positive control is the DTH reaction to oxazolone elicited in sensitized mice without treatment. The negative control is the background swelling produced by the oxazolone antigen in naïve non-sensitized mice.
Peptides Nos. 1-5 were given to the mice by mini perfusion pumps (alzet osmotic pump model 2001), which contained the indicated peptide (40 μg; 200 μl). The pumps were implanted under the mouse skin one day before oxazolone sensitization and they released the peptide in a rate of 1 μl per hour (0.2 μg/hour) for 7 days.
Peptides Nos. 6-10 were given to the mice by subcutaneously injection (1 μg or 10 μg per mouse), every day, starting at one day before oxazolone sensitization and ending at day 5 post DTH initiation.

Data set [2] deals with T cells. Description: Chemotaxis assay: T cell migration toward SDF-1α. The settings on record: SDF-1α 250 ng/ml, 3 hr. In kind it is cell-based. The method, then: The migration of ^51-[Cr]-labeled T cells was examined in […] Transwell chemotaxis apparatus (6.5-mm diameter; Corning, N.Y.), consisting of two compartments separated by polycarbonate filters (5 μm pore size) pretreated (1 hr, 37° C.) with FN (25 μg/ml). ^51-[Cr]-labeled T cells (2×10^5 in 100 μl of RPMI containing 0.1% BSA and antibiotics), which were pre-incubated with the indicated concentrations of peptides (30 min, 37° C.), were added to the upper chambers. The bottom chambers contained 0.6 ml of the same media, with or without human Stromal cell-Derived Factor-1α (SDF-1α; 250 ng/ml). After incubation at 37° C. for 3 hr (7.5% CO2-humidified atmosphere), cells that had transmigrated into the lower wells were collected, centrifuged, and lysed (in 100 μl of distilled water containing 1 M NaOH and 0.1% Triton X-100), and the radioactivity in the resulting supernatants was determined with a γ-counter. The percentage (±SD) of cell migration was calculated as the radioactivity counts in the lysates of the lower chambers (representative of the migrating cells) divided by the total counts (representative of 2×10^5 cells).

Data set [3] concerns Jurkat and THP-1 cells. Description: TNFα secretion by PMA/PHA induced Jurkat and THP-1 cells. The format is cell-based, human. The note with it: 48 hours, ELISA. The protocol: Jurkat cells human T cell lymphoma line) (2×10^6 cells/ml) cultured in RPMI-1640 supplemented with 10% FCS were activated with PMA (50 ng/ml) and phytohaemagglutinin PHA (4 µg/ml) for 6 hours at 37° C. (7.5% CO2-humidified atmosphere). Thereafter, the cells were washed, plated on 24-well plates (10^6 cells/well in 0.5 ml), and incubated (1 hour at 37° C., 7.5% CO2-humidified atmosphere) with the indicated concentrations of peptides 1-5. Following the incubation, THP-1 cells (human monocytic cell line derived from a patient with acute monocytic leukaemia; 1.25×10^5 cells/0.5 ml/well) were added to the wells. After 48 hours, the supernatants were collected and their TNF[…] content was determined by ELISA using anti TNF[…] mAb (Pharmingen; San Diego, Calif.) according to the manufacturer's instructions.
A general note: In an ELISA, binding on a coated surface is turned into a signal by an enzyme label.

The test system of data set [4] is anti-CD3 antibody induced IFNγ secretion from T cells. Description: IFNγ secretion by anti-CD3 activated T cells. The format is cell-based, human. Details: concentration or dose not given beside the values. The settings on record: 24 hours; ELISA; FIG. 7B. The protocol:
(§1) Human T cells were purified and maintained in culture (RPMI containing 10% FCS, 1% Pyruvate, 1% glutamine, 1% antibiotics, 7.5% CO2, humidified atmosphere) for 15 hr before they were transferred to RPMI and activated (2 hr, 37° C.) with the indicated concentrations of the peptides. The cells were then plated (1.5×10^6 cells/0.5 ml/well) in 24 wells plates (non-tissue culture grade) precoated with anti-CD3 mAb in order to stimulate the cells to secrete cytokines. After 24 hours, the supernatants were collected and their cytokine content (TNFα and IFNγ) was determined by ELISA using anti-IFNγ and anti TNFα mAb (Pharmingen; San Diego, Calif.) according to the manufacturer's instructions.

In data set [5] the test system is anti-CD3 antibody induced TNFα secretion from T cells. Kind of data set: TNFα secretion by anti-CD3 activated T cells. The settings on record: peptide 100 ng/ml; 24 hours; ELISA; FIG. 7A. In kind it is cell-based, human. The method, then:
as §1

Data set [6] in a line: Stability to serum proteases (HPLC). The format is in vitro ADME, mouse. The method, then:
To test the stability of peptide No. 5 to blood proteases, 100 μl of a 1 mg/ml solution of the peptide were incubated at 37° C. with 40 μl of mouse serum. Samples withdrawn after 0, 2, 4 or 24 hours were precipitated with 200 μl of methanol and centrifuged for 1 min at 10,000×g. The crude solution was analyzed by HPLC equipped with a 220 nm detector. The crude solution was diluted in 0.1% trifluoroacetic acid (TFA), applied on a RP-18^e column (Chromolith) (MERCK, Darmstadt, Germany), and the HPLC conditions were as follows: mobile phase A, TFA (0.1%) in water; mobile phase B: TFA (0.1%) in acetonitrile (75%). The flow rate was 3 ml/min and the gradient was 0 to 100% B for the first 10 min, 100% B for additional 5 min, and for the last 5 min the gradient was 100% B to 0.

Data set [7] has as its system NF-κB. Description: Nuclear translocation of NF-κB in T cells (Western blot). In kind it is cell-based. The note with it: peptide 100 ng/ml for 2 hours, then anti-CD3 mAb 24 hr; human T cells. An excerpt: To address the modulatory role of the wound fluid peptides on the signal transduction cascade leading to regulation of T-cell secretion of TNF-α(and IFN-γ, the nuclear translocation of NF-κB was detected by probing nuclear and cytoplasmic T-cell extracts using mAb specific for the p65 subunit of NF-κB. The nuclear protein Lamin B was used as continuatively expressed control protein for the quantification of protein amounts.
Human T cells. T cells were purified from the peripheral blood of healthy human donors (Blood Bank; Tel-Hashomer, Israel). The whole blood was incubated (20 min, 22° C.) with RosetteSep™ human T-cell enrichment cocktail (StemCell Technologies, Vancouver, BC, Canada). The remaining unsedimented cells were then loaded onto Lymphocyte Separation Medium (ICN Biomedicals; Belgium), isolated by density centrifugation, and washed with PBS. The purified cells (>95% CD3^+ T cells) so obtained were cultured in RPMI containing antibiotics and 10% heat-inactivated FCS. Western blot analysis of T-cell nuclear extracts. Purified T cells (5×10^6) were preincubated with the peptides (100 ng/ml) for 2 hours (37° C. in a 7% CO2, humidified atmosphere). The cells were then replated in 24-well plates pre-coated with anti-CD3 mAb for 24 hr (37° C. in a 7% CO2, humidified atmosphere). T cells were lysed in 10 mM HEPES, 1.5 mM MgCl2, 1 mM dithiothreitol (DTT), 1 mM PMSF, 0.5% Nonidet P-40. The lysates were incubated on ice for 10 min and centrifuged at 2000 rpm for 10 min at 4° C. The supernatants (cytoplasmic extracts) were transferred and the pellet (nuclei) was suspended in buffer containing 30 mM HEPES, 450 mM NaCl, 25% Glycerol, 0.5 mM EDTA, 6 mM DTT, 12 mM MgCl2 1 mM PMSF, 10 μg/ml leupeptin, 10 μg/ml pepstatin, 1% phosphatase inhibitor cocktail, and the suspension was incubated on ice for 30 min. The lysates were cleared by centrifugation (30 min, 14×10^3 rpm, 4° C.), and the resulting supernatants analyzed for protein content. […]

The mark [8] stands for this setting: FIG. 1, peptides by implanted osmotic pump, 0.2 μg/hour for 7 days.
The mark [9] stands for this setting: FIG. 2, peptides subcutaneously 1 μg or 10 μg per mouse every day.

Read-outs that look alike come from different tables or passages of the source. Ends that are not written are not given here.

For the substance “MIESSMN [compound 1, residues 827-833 of LRP5; identified in wound fluids, then synthesized]”, the “inhibition of DTH response” value in data set [1] (setting [8]) is on record as “hardly inhibited”. Moreover, the “inhibition of T cell transmigration toward SDF-1α” value in data set [2] (concentration range 10-1000 ng/ml) is recorded as “did not show a significant inhibition”. The “inhibition of TNFα secretion by Jurkat and THP-1 cells” value in data set [3] (concentration range 1-1000 ng/ml) is “did not exert a significant inhibition”.
In the case of “NQGEESAEI [compound 10, residues 470-478 of Calcitonin receptor; identified in wound fluids, then synthesized]”, in data set [4], the “inhibition of anti-CD3 antibody induced IFNγ secretion from T cells” value is 75%. Further, the “inhibition of anti-CD3 antibody induced TNFα secretion from T cells” value in data set [5] is on record as about 70%. In addition, the “inhibition of DTH response” value in data set [1] (setting [9]) is 30%.
Taken in the same sequence, the figures for “NDADDST [compound 9, residues 302-308 of Cadherin 4; identified in wound fluids, then synthesized]” were 40%, about 50% and “hardly inhibited”.
For the substance “NPDESSKPNMI [peptide No. 5, NPDESSKPNMI]”, the “% Area (HPLC peak of peptide)” value was found to be 74.23% in data set [6] (Test 1, 0 hours incubation with mouse serum); 75.08% in data set [6] (Test 1, 2 hours incubation at 37° C. with mouse serum); 68.94% in data set [6] (Test 1, 4 hours incubation at 37° C. with mouse serum); 68.69% in data set [6] (Test 1, 24 hours incubation at 37° C. with mouse serum); 90.62% in data set [6] (Test 2, 0 hours incubation with mouse serum); 87.32% in data set [6] (Test 2, 2 hours incubation at 37° C. with mouse serum). Also, in data set [6] (mouse serum, up to 24 hours), the “resistance to serum proteases” value was “highly resistant”. Also, the metabolised at 2 h, 0.71 mg/ml in data set [6] (mouse, mouse serum, after 2 hours (test 2), read-out: peptide degraded in the presence of mouse serum) was about 3.5%. For the same substance, in data set [6] (mouse, mouse serum, after 4 hours (test 1), read-out: peptide degraded in the presence of mouse serum), the metabolised at 4 h, 0.71 mg/ml worked out at 7.5%. In data set [6] (mouse, mouse serum, after 24 hours (test 1), read-out: peptide degraded in the presence of mouse serum), the metabolised at 24 h, 0.71 mg/ml stood at 7.5%. The remaining at 24 h, 0.71 mg/ml in data set [6] (mouse, mouse serum, after 24 hours of exposure to serum proteases, read-out: peptide still present as an intact peptide) is over 90%.
In the case of “TDYGKDLMEKV [peptide No. 4, residues 42-52 of Apo A-II; identified in wound fluids, then synthesized]”, the “inhibition of anti-CD3 antibody induced IFNγ secretion from T cells” value in data set [4] is about 50%. For the same substance, the “inhibition of anti-CD3 antibody induced TNFα secretion from T cells” value in data set [5] is given as about 50%. The “inhibition of DTH response” value in data set [1] (setting [8]) is recorded as “hardly inhibited”. The “inhibition of T cell migration toward SDF-1α” value in data set [2] (peptide 1000 ng/ml) stood at 30%. Further, the “inhibition of TNFα secretion by Jurkat and THP-1 cells compared to PMA/PHA alone” value in data set [3] (peptide 1 μg/ml) is 40%.
Consider “DHSKNPVGV [compound 8, residues 320-328 of ADAM 8; identified in wound fluids, then synthesized]”, for which the “inhibition of anti-CD3 antibody induced IFNγ secretion from T cells” value in data set [4] worked out at 15%. Also, in data set [5], the “inhibition of anti-CD3 antibody induced TNFα secretion from T cells” value was 30%. Besides, the “inhibition of DTH response” value in data set [1] (setting [9]) stood at 60%.
Consider “ELERPGGNEI [compound 6, residues 260-269 of Fibrinogen Aα; identified in wound fluids, then synthesized]”, for which, in data set [4], the “inhibition of anti-CD3 antibody induced IFNγ secretion from T cells” value is reported as 40%. In data set [5], the “inhibition of anti-CD3 antibody induced TNFα secretion from T cells” value is given as 40%. Moreover, the “inhibition of DTH response” value in data set [1] (setting [9]) is 50%. Besides, in data set [7], the “NF-κB translocation to the nucleus” value was “significant down-regulation”.
Turning to “ALTDMPQM [compound 7, residues 250-257 of Fibrinogen Aα; identified in wound fluids, then synthesized]”, the “inhibition of anti-CD3 antibody induced IFNγ secretion from T cells” value in data set [4] was found to be 30%. For the same substance, in data set [5], the “inhibition of anti-CD3 antibody induced TNFα secretion from T cells” value came out at 30%. Besides, the “inhibition of DTH response” value in data set [1] (setting [9]) is given as “hardly inhibited”.

The values are drawn from patent US20080311103A1, “Anti-Inflammatory Peptides and Methods of Use Thereof” (YEDA RESEARCH AND DEVELOPMENT CO. LTD. at THE WEIZMANN …, priority 2004, published 2008).
